pIC50: −log10 of the molar value. Where a name gives a salt, the structure may show the parent alone.
Legend:
[1] = tested on: sterol synthesis (rat liver homogenate); experiment: CSI (Cholesterol Synthesis Inhibition) screen; assay type: biochemical; settings: 14C-acetate incorporation into nonsaponifiable lipid, one-hour period
Procedure: The ability of compounds of the present invention to inhibit the biosynthesis of cholesterol was measured by a method (designated CSI (Cholesterol Synthesis Inhibition) screen) which utilizes the procedure described by R. E. Dugan et al, Archives of Biochemistry and Biophysics, Volume 152, pages 21-27 (1972). In this method, the level of HMG-CoA enzyme activity in standard laboratory rats is increased by feeding the rats a chow diet containing 5% cholestyramine for four days, after which the rats are sacrificed.
The rat livers are homogenized, and the incorporation of ^14 C-acetate into nonsaponifiable lipid by the rat liver homogenate is measured. The micromolar concentration of compound required for 50% inhibition of sterol synthesis over a one-hour period is measured, and expressed as an IC50 value.

[2] = tested on: cholesterol synthesis (plasma [14C]cholesterol); experiment: AICS (Acute Inhibition of Cholesterol Synthesis) screen; assay type: in vivo, male Sprague-Dawley rats; settings: cholestyramine-fed male rats, single oral gavage dose (dose not given), [1-14C]acetate i.p. one hour after dosing, blood after 50 minutes
Procedure: Additionally, the ability of compounds of the present invention to inhibit the biosynthesis of cholesterol was also measured by a method (designated AICS (Acute Inhibition of Cholesterol Synthesis) screen) which utilizes the procedure described by A. W. Alberts, et al, Proceedings of the National Academy of Sciences, Volume 77, pages 3957-3961 (1980).
In this method male Sprague-Dawley rats (200 g body weight) previously fed 5% cholestyramine for three days were randomly divided into groups (N=5/group) and given a single dose of vehicle (controls) or compound by an oral gavage at the indicated doses. One hour after drug dosing, all rats were injected intraperitoneally with sodium[1-^14 C]acetate (18.75 μCi/rat in 0.2 ml saline). After 50 minutes, blood samples were taken, plasma obtained by centrifugation, and plasma [^14 C]cholesterol measured after saponification and extraction.

CN(C)c1nc2ccccc2c(-c2ccc(F)cc2)c1/C=C/[C@@H](O)C[C@@H](O)CC(=O)O (relative stereo) [[R*,S*-(E)]-7-[2-dimethylamino)-4-(4-fluorophenyl)-3-quinolinyl]-3,5-dihydroxy-6-heptenoic acid, monosodium salt]
pIC50 [1]: 7.33
AICS % Inhibition [2]: 49%

CN(C)c1nc2ccccc2c(-c2ccc(F)cc2)c1/C=C/[C@@H]1C[C@@H](O)CC(=O)O1 (relative stereo) [1 (lactone), [4α,6β(E)]-6-[2-[2-(Dimethylamino)-4-(4-fluorophenyl)-3-quinolinyl]ethenyl]tetrahydro-4-hydroxy-2H-pyran-2-one]
AICS % Inhibition [2]: 52%

— patent publication US4923861A, “6-(2-(2-(Substituted amino)-3-quinolinyl) ethenyl and ethyl) tetrahydro-4-hydroxypyran-2-one inhibitors of cholesterol biosynthesis” (Warner-Lambert Company, priority 1989, dated 1990)
